# Measurements as given in US20070202158A1, “Methods Of Administering Water-Soluble Prodrugs Of Propofol For Extended Sedation” (MGI GP, Inc., priority 2003, published 2007).
# Columns and labels:
# [1] = Plasma concentration of propofol derived from the test prodrug in rats (Table I); assay type: in vivo; details: rat; for F_Cmax / F_AUCt: relative to 5 mg/kg IV; for AUCt / Cmax: propofol in plasma; for AUCt: 0-360 min
# Method: Upon administration, the test prodrug is converted in the body into propofol, its pharmacologically active metabolite. The pharmacokinetic profile, i.e. the blood plasma concentration of propofol derived from the test prodrug, was assessed in a separate experiment. Male Sprague-Dawley Rats (225-250 g) were obtained with indwelling jugular or intraduodenal catheters (Hilltop Labs, PA). On the day of testing, control blood samples were taken from the jugular vein prior to dosing. O-phosphonooxymethyl propofol disodium salt was then dosed in different concentrations in groups of 2-3 rats. The test prodrug was administered either by the oral, intravenous or intraduodenal routes. Blood samples (0.5 ml) were taken at 5, 15, 30, 45, 60, 120, 240 and 360 min after administration of the test prodrug. Blood samples were centrifuged to obtain plasma and stored frozen until analysis. The outcome of this experiment is depicted in the following table I:
# “Cmax” is the mean maximum plasma concentration; “F Cmax” is the calculated mean bioavailability of the Cmax for propofol generated from the tested prodrug (as administered via various routes and at various doses), relative to an intravenous dose of 5 mg/kg at Cmax; “AUCt” is the mean area under the curve from time 0 to the last measured time point (360 min); “F AUCt” is the calculated mean bioavailability for AUCt. “Bioavailability” is the quotient, expressed as per cent, of the Cmax or AUCt for intragastric (po) or intraduodenal (GB) administration, and the Cmax or AUCt for a 5 mg/kg intravenous dose, adjusted for dose. […] This transformation provides a reasonable measure to compare the systemic exposure to propofol generated from the test compound (after administration of various doses by various routes) to systemic propofol exposure after I.V. administration of the prodrug.
# [2] = Crossover study of plasma bioavailability of propofol in human volunteers after oral or intraduodenal prodrug (Table II); assay type: in vivo; details: for Blood plasma concentration of propofol, Mean / Blood plasma concentration of propofol, Median: human volunteers
# Excerpt: Blood plasma samples were drawn at various time points post administration and frozen until chromatographic analysis of propofol concentrations. Plasma propofol concentrations at various time points after administration are given for both routes of administration in Table II, below: […]
# [3] = ID (intraduodenal) 400 mg, 0.0 hr
# [4] = ID (intraduodenal) 400 mg, 0.08 hr
# [5] = ID (intraduodenal) 400 mg, 0.17 hr
# [6] = ID (intraduodenal) 400 mg, 0.33 hr
# [7] = ID (intraduodenal) 400 mg, 0.50 hr
# [8] = ID (intraduodenal) 400 mg, 0.75 hr
# [9] = ID (intraduodenal) 400 mg, 1.0 hr
# [10] = ID (intraduodenal) 400 mg, 1.5 hr
# [11] = ID (intraduodenal) 400 mg, 2.0 hr
# [12] = ID (intraduodenal) 400 mg, 4.0 hr
# [13] = ID (intraduodenal) 400 mg, 6.0 hr
# [14] = ID (intraduodenal) 400 mg, 9.0 hr
compound,measurement,setting,value
CC(C)c1cccc(C(C)C)c1OCOP(=O)([O-])[O-].[Na+].[Na+] [O-phosphonooxymethyl propofol disodium salt],F_Cmax,[1]; Gb (intraduodenal) 1 mg/kg,14.4%
same,F_AUCt,[1]; Gb (intraduodenal) 3 mg/kg,9.34%
same,F_Cmax,[1]; Gb (intraduodenal) 3 mg/kg,27.3%
same,F_AUCt,[1]; Gb (intraduodenal) 10 mg/kg,27.4%
same,F_Cmax,[1]; Gb (intraduodenal) 10 mg/kg,35.0%
same,F_AUCt,[1]; Gb (intraduodenal) 30 mg/kg,55%
same,F_Cmax,[1]; Gb (intraduodenal) 30 mg/kg,74.0%
same,F_AUCt,[1]; Gb (intraduodenal) 100 mg/kg,161%
same,F_Cmax,[1]; Gb (intraduodenal) 100 mg/kg,102%
same,F_AUCt,[1]; I.V. 5 mg/kg,100%
same,F_Cmax,[1]; I.V. 5 mg/kg,100%
same,F_AUCt,[1]; I.V. 50 mg/kg,117.9%
same,F_Cmax,[1]; I.V. 50 mg/kg,86.7%
same,bioavailability of propofol liberated from the prodrug (in words),[1]; gastric bypass,markedly enhanced
same,F_AUCt,[1]; p.o. 20 mg/kg,13.3%
same,F_Cmax,[1]; p.o. 20 mg/kg,3.72%
same,F_AUCt,[1]; p.o. 50 mg/kg,22.2%
same,F_Cmax,[1]; p.o. 50 mg/kg,4.65%
same,F_Cmax,[1]; p.o. 100 mg/kg,9.20%
same,F_AUCt,"[1]; p.o. 100 mg/kg, disodium salt",53.2%
same,F_AUCt,"[1]; p.o. 100 mg/kg, listed as test compound, disodium salt",above 50%
same,"Cmax bioavailability of propofol (F Cmax, in words)","[1]; p.o. 20, 50 and 100 mg/kg",limited at all tested dose levels
same,AUCt,[1]; Gb (intraduodenal) 3 mg/kg,0.389 µg·min/mL
same,AUCt,[1]; Gb (intraduodenal) 10 mg/kg,3.81 µg·min/mL
same,AUCt,[1]; Gb (intraduodenal) 30 mg/kg,22.9 µg·min/mL
same,AUCt,[1]; Gb (intraduodenal) 100 mg/kg,223 µg·min/mL
same,AUCt,[1]; I.V. 5 mg/kg,6.94 µg·min/mL
same,AUCt,[1]; I.V. 50 mg/kg,81.8 µg·min/mL
same,AUCt,[1]; p.o. 20 mg/kg,3.70 µg·min/mL
same,AUCt,[1]; p.o. 50 mg/kg,15.4 µg·min/mL
same,AUCt,[1]; p.o. 100 mg/kg,73.8 µg·min/mL
same,Cmax,"[1]; Gb (gastric bypass, intraduodenal) 1 mg/kg",0.00826 µg/mL
same,Cmax,[1]; Gb (intraduodenal) 3 mg/kg,0.0468 µg/mL
same,Cmax,[1]; Gb (intraduodenal) 10 mg/kg,0.200 µg/mL
same,Cmax,[1]; Gb (intraduodenal) 30 mg/kg,1.27 µg/mL
same,Cmax,[1]; Gb (intraduodenal) 100 mg/kg,5.84 µg/mL
same,Cmax,[1]; I.V. 5 mg/kg,0.286 µg/mL
same,Cmax,[1]; I.V. 50 mg/kg,2.48 µg/mL
same,Cmax,[1]; p.o. 20 mg/kg,0.0426 µg/mL
same,Cmax,[1]; p.o. 50 mg/kg,0.133 µg/mL
same,Cmax,[1]; p.o. 100 mg/kg,0.526 µg/mL
same,"Blood plasma concentration of propofol, Mean",[2]; [3],0.0 ng/mL
same,"Blood plasma concentration of propofol, Median",[2]; [3],0.0 ng/mL
same,"Blood plasma concentration of propofol, Mean",[2]; [4],194.1 ng/mL
same,"Blood plasma concentration of propofol, Median",[2]; [4],144.5 ng/mL
same,"Blood plasma concentration of propofol, Mean",[2]; [5],247.6 ng/mL
same,"Blood plasma concentration of propofol, Median",[2]; [5],210.9 ng/mL
same,"Blood plasma concentration of propofol, Mean",[2]; [6],272.0 ng/mL
same,"Blood plasma concentration of propofol, Median",[2]; [6],277.3 ng/mL
same,"Blood plasma concentration of propofol, Mean",[2]; [7],178.6 ng/mL
same,"Blood plasma concentration of propofol, Median",[2]; [7],211.3 ng/mL
same,"Blood plasma concentration of propofol, Mean",[2]; [8],76.5 ng/mL
same,"Blood plasma concentration of propofol, Median",[2]; [8],52.3 ng/mL
same,"Blood plasma concentration of propofol, Mean",[2]; [9],47.7 ng/mL
same,"Blood plasma concentration of propofol, Median",[2]; [9],45.3 ng/mL
same,"Blood plasma concentration of propofol, Mean",[2]; [10],25.4 ng/mL
same,"Blood plasma concentration of propofol, Median",[2]; [10],24.7 ng/mL
same,"Blood plasma concentration of propofol, Mean",[2]; [11],16.4 ng/mL
same,"Blood plasma concentration of propofol, Median",[2]; [11],14.2 ng/mL
same,"Blood plasma concentration of propofol, Mean",[2]; [12],5.0 ng/mL
same,"Blood plasma concentration of propofol, Median",[2]; [12],5.6 ng/mL
same,"Blood plasma concentration of propofol, Mean",[2]; [13],0.0 ng/mL
same,"Blood plasma concentration of propofol, Median",[2]; [13],0.0 ng/mL
same,"Blood plasma concentration of propofol, Mean",[2]; [14],0.0 ng/mL
same,"Blood plasma concentration of propofol, Median",[2]; [14],0.0 ng/mL
same,"Blood plasma concentration of propofol, Mean","[2]; Oral 400 mg, 0.0 hr",0.0 ng/mL
same,"Blood plasma concentration of propofol, Median","[2]; Oral 400 mg, 0.0 hr",0.0 ng/mL
same,"Blood plasma concentration of propofol, Mean","[2]; Oral 400 mg, 0.08 hr",6.6 ng/mL
same,"Blood plasma concentration of propofol, Median","[2]; Oral 400 mg, 0.08 hr",0.0 ng/mL
same,"Blood plasma concentration of propofol, Mean","[2]; Oral 400 mg, 0.17 hr",103.9 ng/mL
same,"Blood plasma concentration of propofol, Median","[2]; Oral 400 mg, 0.17 hr",43.6 ng/mL
same,"Blood plasma concentration of propofol, Mean","[2]; Oral 400 mg, 0.33 hr",197.2 ng/mL
same,"Blood plasma concentration of propofol, Median","[2]; Oral 400 mg, 0.33 hr",153.6 ng/mL
same,"Blood plasma concentration of propofol, Mean","[2]; Oral 400 mg, 0.50 hr",144.1 ng/mL
same,"Blood plasma concentration of propofol, Median","[2]; Oral 400 mg, 0.50 hr",151.4 ng/mL
same,"Blood plasma concentration of propofol, Mean","[2]; Oral 400 mg, 0.75 hr",75.0 ng/mL
same,"Blood plasma concentration of propofol, Median","[2]; Oral 400 mg, 0.75 hr",71.1 ng/mL
same,"Blood plasma concentration of propofol, Mean","[2]; Oral 400 mg, 1.0 hr",53.2 ng/mL
same,"Blood plasma concentration of propofol, Median","[2]; Oral 400 mg, 1.0 hr",37.6 ng/mL
same,"Blood plasma concentration of propofol, Mean","[2]; Oral 400 mg, 1.5 hr",32.3 ng/mL
same,"Blood plasma concentration of propofol, Median","[2]; Oral 400 mg, 1.5 hr",22.8 ng/mL
same,"Blood plasma concentration of propofol, Mean","[2]; Oral 400 mg, 2.0 hr",19.0 ng/mL
same,"Blood plasma concentration of propofol, Median","[2]; Oral 400 mg, 2.0 hr",18.8 ng/mL
same,"Blood plasma concentration of propofol, Mean","[2]; Oral 400 mg, 4.0 hr",6.2 ng/mL
same,"Blood plasma concentration of propofol, Median","[2]; Oral 400 mg, 4.0 hr",6.6 ng/mL
same,"Blood plasma concentration of propofol, Mean","[2]; Oral 400 mg, 6.0 hr",0.9 ng/mL
same,"Blood plasma concentration of propofol, Median","[2]; Oral 400 mg, 6.0 hr",0.0 ng/mL
same,"Blood plasma concentration of propofol, Mean","[2]; Oral 400 mg, 9.0 hr",0.9 ng/mL
same,"Blood plasma concentration of propofol, Median","[2]; Oral 400 mg, 9.0 hr",0.0 ng/mL
same,plasma propofol after intraduodenal instillation compared to oral (in words),"[2]; intraduodenal 400 mg, human subjects","appreciably higher levels, and at earlier timepoints"
same,plasma propofol after oral administration (in words),"[2]; oral 400 mg, human subjects",appreciable plasma concentrations of propofol
same,plasma propofol concentrations above the upper limit of quantification,"[2]; some values from four of the subjects, second, third and fourth timepoints, 400 mg",> 400 ng/mL
